{"source": "patent US20250114299A1", "about": "“COMBINATION THERAPY INTRAVAGINAL RINGS” (The population Council, Inc., priority 2022, published 2025)", "key": {"[1]": {"assay": "Solubility of DPV (Form I) in various solvents", "type": "physicochemical"}, "[2]": {"assay": "pKa of DPV (chemical properties)", "type": "physicochemical"}, "[3]": {"test_system": "wild-type HIV-1 strains and HIV-1 strains harboring different resistance-inducing mutations", "conditions": "Das et al., J. Med Chem., 2004; cited from earlier work"}}, "note": "Read-outs that look alike come from different tables or passages of the source.", "data": [{"smiles": "Cc1cc(C)c(Nc2ccnc(Nc3ccc(C#N)cc3)n2)c(C)c1", "note": "[DPV, 4-[[4-[(2,4,6-trimethylphenyl)amino]-2-pyrimidinyl]amino]benzonitrile]", "values": [{"measurement": "Solubility", "setting": "[1]; Form I, 0.01M HCl", "result": 0.17, "unit": "mg/g"}, {"measurement": "Solubility", "setting": "[1]; Form I, 0.1M HCl", "result": 0.02, "unit": "mg/g"}, {"measurement": "Solubility", "setting": "[1]; Form I, 0.1M NaOH", "result": 0.001, "unit": "mg/g"}, {"measurement": "Solubility", "setting": "[1]; Form I, Buffer pH 2", "result": 0.095, "unit": "mg/g"}, {"measurement": "Solubility", "setting": "[1]; Form I, Buffer pH 4", "result": 0.0025, "unit": "mg/g"}, {"measurement": "Solubility", "setting": "[1]; Form I, Buffer pH 6", "result": 0.001, "unit": "mg/g"}, {"measurement": "Solubility", "setting": "[1]; Form I, Buffer pH 8", "result": 0.001, "unit": "mg/g"}, {"measurement": "Solubility", "setting": "[1]; Form I, Buffer pH 10", "result": 0.001, "unit": "mg/g"}, {"measurement": "Solubility", "setting": "[1]; Form I, Polyethylene glycol 400", "result": 47.4, "unit": "mg/g"}, {"measurement": "Solubility", "setting": "[1]; Form I, Propylene glycol", "result": 2.69, "unit": "mg/g"}, {"measurement": "Solubility", "setting": "[1]; Form I, Water", "result": 0.001, "unit": "mg/g"}, {"measurement": "solubility in water", "setting": "[1]; water", "result": "virtually insoluble in water"}, {"measurement": "Solubility", "setting": "[1]; water, read-out: solubility of dapivirine in water", "result": "< 1", "unit": "µg/mL"}, {"measurement": "pKa", "setting": "[2]", "result": 5.8}, {"measurement": "activity against wild-type and resistant HIV-1 strains", "setting": "[3]", "result": "potent activity"}]}]}
